Source: ChEMBL document CHEMBL1201862, “PubChem BioAssay data set” (2004)
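Tested at 5 concentrations; 48 h exposure; 96-well plates; endpoints linearly interpolated, else capped at highest concentration. Abbreviation: GI50, concentration required for 50% inhibition of growth.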 Activity calls are given as the source filed them. Cut-off read from the data, not from the text of the source: active = GI50 up to about 1.1 µM and inactive = higher.

Columns and labels:
Experiment in all cases: DTP human tumour cell line panel, 48 h
A549 = test system: A549
CAKI-1 = test system: CAKI-1
SNB-19 = test system: SNB-19
MDA-N = test system: MDA-N
A498 = test system: A498
KM12 = test system: KM12
SN12C = test system: SN12C
HCC 2998 = test system: HCC 2998
MDA-MB-231 = test system: MDA-MB-231
SW-620 = test system: SW-620
NCI-H460 = test system: NCI-H460
SK-MEL-2 = test system: SK-MEL-2
LOX IMVI = test system: LOX IMVI
MOLT-4 = test system: MOLT-4
NCI-H226 = test system: NCI-H226
HCT-116 = test system: HCT-116
UACC-257 = test system: UACC-257
MDA-MB-435 = test system: MDA-MB-435
OVCAR-5 = test system: OVCAR-5
MCF7 = test system: MCF7

Measured: GI50

CCOc1ccccc1Nc1ccc(N)cc1S(=O)(=O)O
inactive: A549 > 100 µM | CAKI-1 > 100 µM | SNB-19 > 100 µM | MDA-N > 100 µM | A498 > 100 µM | KM12 > 100 µM | SN12C > 100 µM | HCC 2998 > 100 µM | MDA-MB-231 > 100 µM | SW-620 > 100 µM | NCI-H460 > 100 µM | SK-MEL-2 > 100 µM | LOX IMVI > 100 µM | MOLT-4 > 100 µM | NCI-H226 > 100 µM | HCT-116 > 100 µM | UACC-257 > 100 µM | MDA-MB-435 > 100 µM | OVCAR-5 > 100 µM

OC1OC(c2ccco2)C(F)(F)C(F)(F)C1(F)F (configuration not stated)
inactive: A549 74 µM | SNB-19 > 100 µM | MDA-N > 100 µM | A498 > 100 µM | KM12 19.9 µM | SN12C > 100 µM | MDA-MB-231 65.6 µM | MCF7 > 100 µM | SW-620 > 100 µM | NCI-H460 > 100 µM | SK-MEL-2 > 100 µM | LOX IMVI > 100 µM | NCI-H226 > 100 µM | HCT-116 > 100 µM | UACC-257 > 100 µM | MDA-MB-435 43.6 µM | OVCAR-5 > 100 µM

COC(=N)/C(=C1\OC(=N)C(c2ccc(Cl)cc2)=C1O)c1ccc(Cl)cc1
inactive: A549 > 100 µM | CAKI-1 > 100 µM | SNB-19 > 100 µM | A498 > 100 µM | KM12 > 100 µM | SN12C > 100 µM | HCC 2998 > 100 µM | SW-620 > 100 µM | NCI-H460 > 100 µM | SK-MEL-2 > 100 µM | LOX IMVI > 100 µM | MOLT-4 > 100 µM | NCI-H226 > 100 µM | HCT-116 > 100 µM | UACC-257 > 100 µM | OVCAR-5 > 100 µM

Cc1cc(=O)oc2cc(OCc3c(F)cccc3Cl)ccc12
inactive: A549 > 100 µM | CAKI-1 17.2 µM | SNB-19 20.9 µM | MDA-N 2.3 µM | A498 > 100 µM | KM12 1.99 µM | SN12C > 100 µM | MDA-MB-231 4.07 µM | MCF7 4.6 µM | SK-MEL-2 4.55 µM | LOX IMVI 11.5 µM | NCI-H226 33.3 µM | HCT-116 4.41 µM | UACC-257 78.5 µM | MDA-MB-435 1.78 µM | OVCAR-5 > 100 µM

O=C1C=C2CCC[C@H]3OC(=O)C[C@@]23CC1
inactive: A549 > 100 µM | CAKI-1 > 100 µM | SNB-19 > 100 µM | MDA-N > 100 µM | A498 > 100 µM | KM12 > 100 µM | SN12C > 100 µM | HCC 2998 > 100 µM | MDA-MB-231 > 100 µM | SW-620 > 100 µM | NCI-H460 > 100 µM | SK-MEL-2 > 100 µM | LOX IMVI > 100 µM | MOLT-4 > 100 µM | NCI-H226 > 100 µM | HCT-116 > 100 µM | UACC-257 > 100 µM | MDA-MB-435 > 100 µM | OVCAR-5 > 100 µM

OC(c1ccco1)C(F)(F)c1nc2ccccc2o1 (configuration not stated)
inactive: CAKI-1 > 100 µM | SNB-19 > 100 µM | A498 62.1 µM | KM12 > 100 µM | HCC 2998 > 100 µM | MDA-MB-231 > 100 µM | MCF7 41.1 µM | SW-620 > 100 µM | NCI-H460 > 100 µM | SK-MEL-2 > 100 µM | LOX IMVI > 100 µM | MOLT-4 > 100 µM | NCI-H226 > 100 µM | HCT-116 > 100 µM | UACC-257 > 100 µM | MDA-MB-435 > 100 µM

COc1ccc(C2SCC(=O)N2NC(=O)C(C)Oc2ccccc2Cl)cc1 (configuration not stated)
inactive: A549 35.5 µM | CAKI-1 > 100 µM | SNB-19 69.2 µM | A498 28.1 µM | KM12 35.9 µM | SN12C 63.2 µM | HCC 2998 > 100 µM | MDA-MB-231 26.9 µM | MCF7 32.4 µM | SW-620 49.4 µM | NCI-H460 70.1 µM | SK-MEL-2 18.7 µM | LOX IMVI 24.5 µM | MOLT-4 27 µM | NCI-H226 51.6 µM | HCT-116 40.3 µM | UACC-257 > 100 µM | MDA-MB-435 33 µM | OVCAR-5 > 100 µM

O=P1(Oc2ccc(Cl)cc2)OCCS1 (configuration not stated)
inactive: A549 > 100 µM | SNB-19 > 100 µM | MDA-N > 100 µM | A498 > 100 µM | SN12C > 100 µM | HCC 2998 > 100 µM | MDA-MB-231 > 100 µM | SW-620 > 100 µM | NCI-H460 > 100 µM | SK-MEL-2 > 100 µM | LOX IMVI > 100 µM | NCI-H226 > 100 µM | HCT-116 > 100 µM | UACC-257 > 100 µM | OVCAR-5 > 100 µM

CC[C@H](C)C1=C(OC(C)=O)[N@+]2([O-])Oc3ccc(-c4c(O)c(O)c(-c5ccc(OC(C)=O)cc5)c(OC(C)=O)c4OC(C)=O)cc3O[C@]2([C@@H](C)CC)C(=O)N1O
inactive: A549 18.8 µM | CAKI-1 26.3 µM | SNB-19 32.1 µM | MDA-N 23.2 µM | A498 7.85 µM | KM12 20.6 µM | SN12C 19.4 µM | MDA-MB-231 17.8 µM | MCF7 19.4 µM | SW-620 11.1 µM | NCI-H460 18.5 µM | SK-MEL-2 > 50 µM | LOX IMVI 17.5 µM | MOLT-4 13.2 µM | HCT-116 10.8 µM | UACC-257 > 50 µM | MDA-MB-435 27.1 µM | OVCAR-5 22.9 µM

O=C1c2ccccc2NC2C(O)c3ccccc3N12 (configuration not stated)
inactive: A549 10.9 µM | CAKI-1 34.8 µM | SNB-19 > 100 µM | A498 20.6 µM | KM12 35.2 µM | SN12C 94.4 µM | HCC 2998 42.9 µM | MDA-MB-231 > 100 µM | MCF7 40.2 µM | SW-620 9.46 µM | NCI-H460 13.2 µM | SK-MEL-2 52 µM | LOX IMVI 36.6 µM | MOLT-4 21 µM | NCI-H226 > 100 µM | HCT-116 30.5 µM | UACC-257 15.3 µM | MDA-MB-435 17.7 µM | OVCAR-5 82.2 µM

O=C(/N=N/c1ccc(Cl)cc1Cl)NNc1ccc(Cl)cc1Cl
inactive: A549 18.2 µM | CAKI-1 19.6 µM | SNB-19 28.6 µM | MDA-N 16.2 µM | A498 15.7 µM | SN12C 16.4 µM | HCC 2998 11.4 µM | MDA-MB-231 20.7 µM | SW-620 21.3 µM | NCI-H460 16.4 µM | SK-MEL-2 12.9 µM | LOX IMVI 16.5 µM | MOLT-4 16.3 µM | NCI-H226 19 µM | HCT-116 13.9 µM | UACC-257 19.6 µM | MDA-MB-435 16.1 µM | OVCAR-5 19.3 µM
